One compound from patent US20240335429A1, “MOLECULAR GLUE AND SALL4 DEGRADER” (National University of Singapore, priority 2021, published 2024) can be followed below.

The target of one assay is T1, SALL4A (Homo sapiens, UniProt Q9UJQ4).
T1 construct: endogenous in cells; host or cells: SNU-398 HCC cells
T1 sequence (Q9UJQ4 1-1053): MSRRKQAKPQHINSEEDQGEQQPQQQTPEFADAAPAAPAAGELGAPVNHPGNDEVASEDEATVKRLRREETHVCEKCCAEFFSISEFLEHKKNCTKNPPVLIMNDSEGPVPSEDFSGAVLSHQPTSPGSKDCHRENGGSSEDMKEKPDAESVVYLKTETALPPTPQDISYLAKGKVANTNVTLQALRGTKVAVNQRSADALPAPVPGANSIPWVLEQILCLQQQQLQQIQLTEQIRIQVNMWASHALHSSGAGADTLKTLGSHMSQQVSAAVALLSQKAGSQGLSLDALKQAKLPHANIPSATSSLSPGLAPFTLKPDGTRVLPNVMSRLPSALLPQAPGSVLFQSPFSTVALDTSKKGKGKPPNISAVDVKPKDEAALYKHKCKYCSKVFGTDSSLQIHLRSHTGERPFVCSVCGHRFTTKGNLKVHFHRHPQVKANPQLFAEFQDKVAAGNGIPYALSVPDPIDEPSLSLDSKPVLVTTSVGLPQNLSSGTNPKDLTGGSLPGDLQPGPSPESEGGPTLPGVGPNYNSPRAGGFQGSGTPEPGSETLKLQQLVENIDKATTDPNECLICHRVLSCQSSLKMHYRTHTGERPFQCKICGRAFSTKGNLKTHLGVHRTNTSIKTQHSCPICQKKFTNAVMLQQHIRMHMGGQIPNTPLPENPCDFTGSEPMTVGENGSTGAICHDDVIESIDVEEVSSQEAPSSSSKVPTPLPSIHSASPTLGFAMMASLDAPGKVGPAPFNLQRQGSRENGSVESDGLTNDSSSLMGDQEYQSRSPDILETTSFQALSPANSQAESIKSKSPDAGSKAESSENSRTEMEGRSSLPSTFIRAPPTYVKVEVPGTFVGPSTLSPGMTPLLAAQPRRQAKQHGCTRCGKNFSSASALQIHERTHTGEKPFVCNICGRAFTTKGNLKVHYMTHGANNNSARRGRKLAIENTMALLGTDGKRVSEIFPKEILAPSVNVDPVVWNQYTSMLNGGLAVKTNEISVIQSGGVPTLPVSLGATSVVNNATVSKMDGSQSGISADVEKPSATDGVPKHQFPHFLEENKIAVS
Briefly: Immunoblot of endogenous SALL4A in SNU-398 HCC cells. The note with it: SNU-398 cells, 24 h, immunoblot quantification. The assay is classed as cell-based. How it is done:
(§1) RIPA buffer containing freshly added protease inhibitors (2 mM PMSF) and protease inhibitor cocktail was used for cell lysis. The lysed cells were incubated for 10 min on ice and subsequently centrifuged at 4° C. for 10 min at 14,000 rpm. The protein concentrations of cell lysates were assessed using Bradford Assay as per manufacturer's instructions. The samples were denatured using 4× Sample buffer at 95° C. for 5 min. The samples were size resolved using polyacrylamide gel (8%) and Mini-PROTEAN Tetra Cell module. The size-resolved proteins were transferred onto PVDF via electroblotting using Mini Trans-Blot® module. The membrane was blocked using 5% BSA in TBST. The membrane was incubated with appropriate primary antibody (overnight) and secondary antibody (1 h). Immobilon Crescendo Western HRP substrate was used for signal development and images were acquired using darkroom development techniques.
A head-to-head comparison between the newly discovered SALL4 degrader QE-18-WG07 and IMiDs (Pomalidomide and Thalidomide) was performed. […]
For orientation: A western blot detects proteins with antibodies after separation by electrophoresis.

A further assay deals with c-myc. As to the kind of experiment: Immunoblot of c-myc (SALL4 downstream target) in SNU-398 cells. The note with it: Homo sapiens; SNU-398 HCC cells, 24 h treatment; read-out: suppression of SALL4 downstream target c-myc, IC50. The assay is classed as cell-based, human. How it is done: as §1
The test system of a further assay is cleaved PARP. Briefly: Immunoblot of cleaved PARP (apoptotic marker) in SNU-398 cells. Format: cell-based, human. The settings on record: SNU-398 HCC cells, 24 h. How it is done: as §1
A further assay relates to SNU-182 cells. As to the kind of experiment: CellTiter-Glo viability assay, SNU-182. Format: cell-based. The note with it: Homo sapiens, 72 h. As to the method:
Cells were plated in RPMI culture media (40 μL) in 384-well white, flat-bottom plates (Corning) and incubated at 37° C. in a humidified atmosphere of 5% CO2 overnight. The numbers of cells per well were 1,500 for SNU-398 and SNU-182, 750 for SNU-387, SNU-449, SNU-475 and SNU-423, and 1,000 for H661 and H1299. After overnight incubation, 10 μL of drug (1% DMSO in RPMI) at designed concentrations were added to the cells. The cells were then incubated for 16, 24, 48, 72, or 96 h at 37° C. in a humidified atmosphere of 5% CO2 before CellTiter-Glo reagent (10 μL) was dispensed to the wells. The cells were incubated at room temperature for a minimum of 10 min. After that, luminescence readings were recorded by a Microplate Reader (PHERAstar or Tecan Infinite M200 Pro) according to the manufacturer's instruction for measuring the luminescence.
(In general: In ATP-based viability assays light output follows the ATP content of the culture.)

For orientation: IC50 means the point on the concentration scale where inhibition reaches its midpoint. At SALL4A, `COc1ccccc1NC(=O)Nc1ccc([N+](=O)[O-])cc1O` [QE-18-WG07] had a DC50 of around 4.23 µM and a Dmax of 57%. Also, the IC50 in the assay with c-myc was around 5.12 µM. In the assay on cleaved PARP, the “cleavage of PARP (apoptosis induction)” value is given as “prominent cleavage of PARP”. In addition, the Emax at 1 µM in the assay with SNU-182 cells (achieved at 1 μM, read-out: maximum growth inhibition Emax) was in the range of 90 to 100%. Besides, in the assay on SNU-182 cells (read-out: IC50 of cell viability), the IC50 amounted to 0.951 µM.
